Assays:
AmpC = AmpC (Pseudomonas aeruginosa (strain ATCC 15692 / DSM 22644 / CIP 104116 / JCM 14847 / LMG 12228 / 1C / PRS 101 / PAO1), UniProt P24735); type: biochemical; details: result in words
Description: The biological activity of the above-mentioned compounds represented by formulae (H) and (s) can be measured as follows. […] Further, using constitutive AmpC producing Pseudomonas aeruginosa, a combined antimicrobial activity (MIC) was measured when using Piperacillin (PIPC) as an antibiotic and the compound of formula (H) or (s) in combination to check whether or not the antimicrobial activity of PIPC could be restored.
Using P. aeruginosa PAO1 genome as a template, a DNA for encoding an AmpC β-lactamase domain excluding a signal peptide was amplified with PCR. This PCR product was incorporated into pET-28b(+)vector (Merck), introduced into E. coli BL21 (Merck), and, under induction of 1 mM isopropyl-β-D-(−)-thiogalactopyranoside (Nacalai Tesque), cultured overnight at 20° C. to express AmpC. After the bacterial cell was collected, AmpC was purified from the cell extract obtained by ultrasonic treatment, using CM Sepharose Fast Flow (GE Healthcare) and HiTrap Heparin HP (GE Healthcare) at 4° C.

[1] = system: P. aeruginosa PAO1 variant, which constitutively expresses AmpC; assay: Combinatorial antibacterial activity (MIC of PIPC) in combination with test compound, agar plate dilution; type: cell-based, Pseudomonas aeruginosa; details: for MIC: Pseudomonas aeruginosa, PAO1; for effect of the compound in combination with an antibiotic: result in words
Description: The biological activity of the above-mentioned compounds represented by formulae (H) and (s) can be measured as follows. Specifically, an enzyme inhibitory activity (IC50 value) against AmpC enzyme which is a class C β-lactamase was determined using nitrocephin as a substrate to check whether or not the compounds had the inhibitory activity and compare the activities of them. Further, using constitutive AmpC producing Pseudomonas aeruginosa, a combined antimicrobial activity (MIC) was measured when using Piperacillin (PIPC) as an antibiotic and the compound of formula (H) or (s) in combination to check whether or not the antimicrobial activity of PIPC could be restored.
The combinatorial effect of the test compound with a β-lactam agent against bacteria was evaluated using AmpC constitutive expression strain selected from P. aeruginosa PAO1 through agent exposure. Using piperacillin (PIPC, Sigma-Aldrich) as a β-lactam agent, measurement was conducted by agar plate dilution process in which minimal inhibitory concentration (MIC) of PIPC is based on Clinical and Laboratory Standards Institute (CLSI process). That is, an agara plate containing 4 μg/mL (final concentration) of test compound and PIPC at each concentration in Mueller-Hinton agar (Becton, Dickinson and Company) was made, and bacteria cultured overnight in cation-adjusted Muller-Hinton broth (Becton, Dickinson and Company) were adjusted in the same medium so as to have 10^4 CFU/spot and inoculated on a plate containing an agent. This plate containing an agent was cultured overnight at 35° C., and the minimum agent concentration in which no growth of bacteria is observed was determined to be MIC.

Sequence of AmpC (P24735 27-397): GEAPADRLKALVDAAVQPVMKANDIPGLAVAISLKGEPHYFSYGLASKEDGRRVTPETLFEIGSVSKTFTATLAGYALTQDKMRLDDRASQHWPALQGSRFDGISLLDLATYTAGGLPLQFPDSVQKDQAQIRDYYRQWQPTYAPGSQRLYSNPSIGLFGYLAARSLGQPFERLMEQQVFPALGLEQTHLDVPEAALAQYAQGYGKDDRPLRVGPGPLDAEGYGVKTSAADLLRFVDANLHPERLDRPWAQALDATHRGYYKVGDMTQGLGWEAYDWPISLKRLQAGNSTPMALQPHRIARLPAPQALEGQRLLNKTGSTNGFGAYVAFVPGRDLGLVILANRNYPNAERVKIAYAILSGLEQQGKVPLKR

NC(=O)[C@@H]1CC[C@@H]2CN1C(=O)N2OS(=O)(=O)[O-].[Na+] [Example 23, (2S,5R)-1,6-Diazabicyclo[3.2.1]octane-2-carboxamide, 7-oxo-6-(sulfoxy)-monosodium salt]
β-lactamase enzyme inhibitory activity (AmpC): exhibited the activities | MIC [1]: 4 µg/mL | effect of the compound in combination with an antibiotic [1]: exhibited the activities

NC(=O)[C@H]1CC[C@H]2CN1C(=O)N2OS(=O)(=O)[O-].[Na+] [Example 24, (2R,5S)-1,6-Diazabicyclo[3.2.1]octane-2-carboxamide, 7-oxo-6-(sulfoxy)-monosodium salt]
β-lactamase enzyme inhibitory activity (AmpC): exhibited no activity | MIC [1]: 64 µg/mL | effect of the compound in combination with an antibiotic [1]: exhibited no activity

C[C@]1(Cn2ccnn2)[C@H](C(=O)[O-])N2C(=O)C[C@H]2S1(=O)=O.[Na+] [TAZ, Tazobactam, reference compound]
MIC [1]: 64 µg/mL

From patent US9676777B2, “Compounds useful for producing an optically active diazabicyclooctane compound” (Meiji Seika Pharma Co., Ltd., priority 2010, dated 2017)
